# From Sander's compilation of Henry's law constants (doi:10.1021/je00012a017)
# Experiment: Henry solubility constant Hcp at 302 K (mol/(m3 Pa))
# Conditions: reference: Hansen et al. (1993)
row,Structure (SMILES),Henry solubility constant Hcp at 302 K
1,c1ccccc1 [benzene],0.0015
2,Cc1ccccc1 [methylbenzene],0.0014

# Experiment: Henry solubility constant Hcp at 298.15 K (mol/(m3 Pa))
# Conditions: reference: Hansen et al. (1993)
row,Henry solubility constant Hcp,Structure (SMILES)
1,6.5e-05,C1CCCC1 [cyclopentane]
2,9.6e-05,CC1CCCCC1 [methylcyclohexane]
3,0.00087,CC(C)c1ccccc1 [(2-propyl)-benzene]
4,1.2e-05,CCCCCCC [heptane]
5,0.0015,"Cc1ccc(C)c(C)c1 [1,2,4-trimethylbenzene]"
6,1.9e-05,CCCCC(C)C [2-methylhexane]
7,3e-05,CCCCCCCC [octane]

row,Structure (SMILES),Henry solubility constant Hcp
1,Brc1ccccc1 [bromobenzene],0.0053
2,Cc1ccc2ccccc2c1 [2-methylnaphthalene],5e-05
3,ClC(Cl)(Cl)Cl [tetrachloromethane],0.00033
4,"Cc1ccc(C)cc1 [1,4-dimethylbenzene]",0.0012
5,"CC(Cl)(Cl)Cl [1,1,1-trichloroethane]",0.00059
6,"ClCC(Cl)Cl [1,1,2-trichloroethane]",0.012

# Experiment: Henry solubility constant Hcp at 301 K (mol/(m3 Pa))
# Conditions: reference: Hansen et al. (1993)
row,Henry solubility constant Hcp at 301 K,Structure (SMILES)
1,6e-05,C1CCCCC1 [cyclohexane]
